Values of other authors in patent publication US11013707B2, “Administration of oral methyldopa” (ImmunoMolecular Therapeutics, LLC., priority 2018, dated 2021).
Read-outs that look alike come from different tables or passages of the source.

What was measured:
[1] = man, average
[2] = in vivo

| SMILES | absorption compared with the L isomer (humans, Au et al. 1972) | pharmacologic activity (literature, patients with hypertension) | fraction of the dose available to the systemic circulation as free α-methyldopa ([1]; administered as tablets) [%] | fraction of the dose available to the systemic circulation as free α-methyldopa ([1]; after an oral solution) [%] | half-life [2] |
| --- | --- | --- | --- | --- | --- |
| C[C@@](N)(Cc1ccc(O)c(O)c1)C(=O)O [D-α-methyldopa, D-α-Methyl-3,4-dihydroxyphenylalanine] | much less readily absorbed | no pharmacologic activity | – | – | – |
| C[C@](N)(Cc1ccc(O)c(O)c1)C(=O)O [α-methyldopa, L-α-Methyl-3,4-dihydroxyphenylalanine] | – | – | 27 | 25 | about 105 minutes |
